Source: patent publication US20090092631A1, “GLYCOSYLATED SPECIFICITY EXCHANGERS THAT INDUCE AN ANTIBODY DEPENDENT CELLULAR CYTOTOXICITY (ADCC) RESPONSE” (priority 2007, published 2009)
Ends that are not written are not given here.

How the values were obtained:
HIV-1 IIIB = assay: Neutralization assay (plaque-forming units/syncytia) in U87 cells expressing CD4 and co-receptor; assay type: cell-based
Protocol: Once it had been determined that the glycosylated specificity exchangers appreciably bound gp120 and human antibody, the antiviral activity of the glycosylated specificity exchangers was evaluated using a neutralization assay that is recognized in the art to reasonably predict the therapeutic efficacy of an HIV vaccine. (See Y. Shi et al., “A new cell line-based neutralization assay for primary HIV type 1 isolates,” AIDS Res Hum Retroviruses 18:957-967 (2002), herein expressly incorporated by reference in its entirety). By this approach, HIV infection of U87 cells that express CD4 and one of the major co-receptors (either CXCR4 or CCR5) were challenged with the glycosylated specificity exchangers and human serum during competition with the CD4 receptor. The infected cells form syncytia, that is, plaques, that were stained and enumerated by light microscopy. Neutralization was then determined by the ability of human serum and glycosylated specificity exchanger to reduce the number of plaque-forming units (PFU) relative to controls.
In brief, the U87 cells were seeded onto a 48 well plate at a concentration of 100,000 cell/well 1 day prior infection with HIV-1 IIIB. On the day of infection, glycosylated specificity exchangers (Seq. ID. Nos. 4-9), human serum and virus stock were diluted in culture medium and incubated in a separate 48 well plate, to a final dilution of 1:10/1:20 for the serum and an appropriate concentration of the virus, according to the titration. The glycosylated specificity exchangers were analyzed at different concentrations to determine the minimal amount required for antiviral activity. The glycosylated specificity exchanger-serum-virus mixture was kept at 37° C. for 1 hr. Then, two hundred microliters of each dilution was distributed into wells containing the U87/CD4 cells. The experiment was performed in quadruplicate in the same plate and in five separate plates.
Controls for the assay included glycosylated specificity exchanger without the coupled sugar, the glycosylated specificity exchanger (coupled with the sugar) and a 1:10/1:20 dilution of heat inactivated human serum, cells and medium only, and cells and medium and serum. […]

HIV IIIB virus [1] = assay: Syncytia inhibition (plaque) assay on U87 CD4+-CXCR4+ cells; assay type: cell-based, HIV-1; conditions: for neutralization values (ranking): non-inactivated human sera (FIGS. 12H and 12I); for neutralization (comparison among glycopeptides): plaque assay U87, single round TZMbl and H9 infectivity assays, HIV IIIB, inactivated human serum
Protocol: The CD4 glycopeptides were studied for inhibition of cell to cell interactions in a plaque assay system using U87 cells (FIG. 7), in a single round infectivity assay with TZMbl cells (FIG. 7) and in an infectivity assay with H9 cells, wherein multiple rounds of replication were allowed (FIG. 8). Infectivity was performed with the HIV IIIB virus and inactivated human serum from healthy individuals was used as the source of the anti-gal antibody.
Neutralization was tested based on the prevention of syncytia formation by HIV-1 infection of adherent U87 glioma cells expressing the CD4 receptor and the CXCR4 co-receptor, previously described by Shi Y, et al., (2002) A new cell line-based neutralization assay for primary HIV type 1 isolates. AIDS Res Hum Retroviruses 18:957-967, herein expressly incorporated by reference in its entirety.
Cells were seeded into 48 well plates (Costar, Corning USA) at a concentration of 10^5 cell/well one day prior to infection. On the day of infection, glycopeptides, pooled AB type human serum from healthy individuals (Cambrex, USA) and previously titrated HIV IIIB virus were diluted in culture medium and pre-incubated in a separate 48 well plate for 1 h at 37° C. The peptides were analyzed at different concentrations to evaluate the minimum dose required for antiviral activity. Two hundred microliters of each dilution were distributed into triplicate wells containing the U87 CD4^+-CXCR4^+ cells and incubated for 12 h after which medium was removed and 1 ml of D-MEM medium was added to the cells. The positive controls were infected cells in the presence or absence of human serum and negative controls consisted of uninfected cells in the presence or absence of human serum and an irrelevant glycosylated peptide. At day five the cells were fixated with methanol-acetone (1:1). The number of plaque-forming units was determined after haematoxylin staining and the index was extracted from the ratio between infected cells treated with the peptides and human serum and cells infected with the virus in the presence of human serum. Each peptide was tested at four different concentrations, in quadruplicates in the same plate and in five different plates, i.e. each peptide was run in twenty wells at each concentration.

HIV IIIB virus [2] = assay: Multiple round infectivity assay in H9 cells (RT activity, day 11); assay type: cell-based, HIV-1; conditions: 1 μg/ml glycopeptide, 5 or 10% human serum
Protocol: An infectivity assay was performed on H9 cells that were infected with HIV IIIB virus. All peptides were run at four different dilutions and each dilution was run in quadruplicates together with a 10% or 5% of pooled AB human serum from healthy individuals. (Cambrex, USA).
H9 cells were infected with 100 TCID50 of the HIV IIIB virus and incubated for 1.5 h at 37° C. after which they were centrifuged, the supernatant was discarded and the cells were re-suspended in RPMI medium for a final concentration of 200,000 cells/ml.
One 48 well plate was run per glycopeptide, containing the four dilutions of the glycopeptide and the four replicates of each one of them, plus a positive control of infected cells (with and without human serum) and a negative control of non-infected H9 cells. Each well contained 500 μl of the infected cells +500 μl of the diluted peptide and the chosen dilution of the human serum.
Plates were incubated at 37° C.+5% CO2 until day 7 when 500 μl of supernatant were collected from each well and stored at −20 degrees until further analysis. An additional 500 μl of fresh RPMI medium with the appropriate dilution of the peptide plus the human serum were added to the wells and incubated at 37 degrees until day 11 when the supernatant was measured for Reverse Transcriptase (RT) activity (Cavidi, Sweden) according to the manufacturer's protocol.

[3] = CD4 peptide Alone (without coupled sugar), 0.1 ug/ml, 0.3 equals 30% inhibition
[4] = CD4 peptide Alone (without coupled sugar), 1 ug/ml, 0.3 equals 30% inhibition
[5] = CD4 peptide Alone (without coupled sugar), 10 ug/ml, 0.3 equals 30% inhibition of HIV replication (syncytia formation)
[6] = Glycosylated Sp. Exchanger & 1:10 dilution human serum, 0.1 ug/ml, 0.3 equals 30% inhibition
[7] = Glycosylated Sp. Exchanger & 1:10 dilution human serum, 1 ug/ml, 0.3 equals 30% inhibition
[8] = Glycosylated Sp. Exchanger & 1:10 dilution human serum, 10 ug/ml, 0.3 equals 30% inhibition
[9] = Glycosylated Sp. Exchanger & 1:20 dilution human serum, 0.1 ug/ml, 0.3 equals 30% inhibition
[10] = Glycosylated Sp. Exchanger & 1:20 dilution human serum, 1 ug/ml, 0.3 equals 30% inhibition
[11] = Glycosylated Sp. Exchanger & 1:20 dilution human serum, 10 ug/ml, 0.3 equals 30% inhibition
[12] = Glycosylated Sp. Exchanger, 0.1 ug/ml, 0.3 equals 30% inhibition
[13] = Glycosylated Sp. Exchanger, 1 ug/ml, 0.3 equals 30% inhibition
[14] = Glycosylated Sp. Exchanger, 10 ug/ml, 0.3 equals 30% inhibition

Substance | neutralization of the virus (HIV-1 IIIB; [3]) | neutralization of the virus (HIV-1 IIIB; [4]) | neutralization of the virus (HIV-1 IIIB; [5]) | neutralization of the virus (HIV-1 IIIB; [6]) | neutralization of the virus (HIV-1 IIIB; [7]) | neutralization of the virus (HIV-1 IIIB; [8]) | neutralization of the virus (HIV-1 IIIB; [9]) | neutralization of the virus (HIV-1 IIIB; [10]) | neutralization of the virus (HIV-1 IIIB; [11]) | neutralization of the virus (HIV-1 IIIB; [12]) | neutralization of the virus (HIV-1 IIIB; [13]) | neutralization of the virus (HIV-1 IIIB; [14]) | neutralization of the virus (HIV-1 IIIB; Glycosylated Sp. Exchanger & 1:10 dilution human serum, 100 ug/ml, 0.3 equals 30% inhibition) | neutralization of the virus (HIV-1 IIIB; Glycosylated Sp. Exchanger & 1:20 dilution human serum, 100 ug/ml, 0.3 equals 30% inhibition) | neutralization of the virus (HIV-1 IIIB; Glycosylated Sp. Exchanger, 100 ug/ml, 0.3 equals 30% inhibition) | neutralization values (ranking) (HIV IIIB virus [1]) | neutralization (comparison among glycopeptides) (HIV IIIB virus [1]) | neutralization (HIV IIIB virus [2]) [%]
6 (KILGNQGSFLTKGPS; Homo sapien) [compound 6] | neg (Neg = negative <0.30) | neg (Neg = negative <0.30) | neg (Neg = negative <0.30) | 0.50 | 0.42 | 0.60 | neg (Neg = negative <0.30) | neg (Neg = negative <0.30) | neg (Neg = negative <0.30) | neg (Neg = negative <0.30) | – | – | – | – | – | – | – | –
7 (QGSFLTKGPSKLNDR; Homo sapien) [compound 7] | neg (Neg = negative <0.30) | neg (Neg = negative <0.30) | neg (Neg = negative <0.30) | 0.439 | 0.461 | 0.454 | neg (Neg = negative <0.30) | neg (Neg = negative <0.30) | neg (Neg = negative <0.30) | neg (Neg = negative <0.30) | neg (Neg = negative <0.30) | neg (Neg = negative <0.30) | – | – | – | – | – | –
8 (TKGPSKLNDRADSRR; Homo sapien) [compound 8] | – | – | – | 0.778 | 0.821 | 0.83 | 0.701 | 0.667 | 0.642 | – | 0.548 | 0.552 | – | – | – | – | – | –
9 (KLNDRADSRRSLWDQ; Homo sapien) [compound 9] | – | – | – | 0.76 | 0.75 | 0.78 | 0.71 | 0.75 | 0.74 | neg (Neg = negative <0.30) | neg (Neg = negative <0.30) | neg (Neg = negative <0.30) | 0.75 | 0.734 | neg (Neg = negative <0.30) | – | – | –
KILGNQGSFLTKGPS ({Gal‑α1‑3Gal‑β glyco‑aspartic acid}-KILGNQGSFLTKGPS) [Seq. Id. No. 6, CD4 receptor peptide with Gal-α1-3Gal-β glyco-aspartic acid linked to its N-terminal end] | – | – | – | – | – | – | – | – | – | – | – | – | – | – | – | Highest neutralization values | greater neutralization | 90
QGSFLTKGPSKLNDR ({Gal‑α1‑3Gal‑β glyco‑aspartic acid}-QGSFLTKGPSKLNDR) [Seq. Id. No. 7, CD4 receptor peptide with Gal-α1-3Gal-β glyco-aspartic acid linked to its N-terminal end] | neg (Neg = negative <0.30) | neg (Neg = negative <0.30) | neg (Neg = negative <0.30) | 0.48 | 0.48 | 0.55 | 0.47 | 0.47 | 0.48 | neg (Neg = negative <0.30) | neg (Neg = negative <0.30) | neg (Neg = negative <0.30) | – | – | – | Highest neutralization values | greater neutralization | 90
TKGPSKLNDRADSRR ({Gal‑α1‑3Gal‑β glyco‑aspartic acid}-TKGPSKLNDRADSRR) [Seq. Id. No. 8, CD4 receptor peptide with Gal-α1-3Gal-β glyco-aspartic acid linked to its N-terminal end] | neg (Neg = negative <0.30) | neg (Neg = negative <0.30) | neg (Neg = negative <0.30) | neg (Neg = negative <0.30) | 0.39 | 0.49 | neg (Neg = negative <0.30) | 0.32 | 0.429 | neg (Neg = negative <0.30) | neg (Neg = negative <0.30) | neg (Neg = negative <0.30) | – | – | – | Highest neutralization values | greater neutralization | 90
